Source: ChEMBL document CHEMBL3792356, “Discovery of molluscicidal and cercaricidal activities of 3-substituted quinazolinone derivatives by a scaffold hopping approach using a pseudo-ring based on the intramolecular hydrogen bond formation” (Eur J Med Chem, 2016)
Values after ≈ are worked out from the molar mass of the structure shown.

Legend:
Schistosoma japonicum = test: Cercaricidal activity against Schistosoma japonicum infected in Oncomelania hupensis measured after 120 mins by colour television microscopy; assay type: functional; conditions: for LC50: Schistosoma japonicum, 2 h
Oncomelania hupensis = test: Molluscicidal activity against Oncomelania hupensis measured after 24 hrs; assay type: functional; conditions: for LC50: Oncomelania hupensis, 24 h
[1] = Toxicity in tadpole assessed as lethality at 5 ppm measured after 48 hrs; assay type: organism-based; conditions: anura, in vivo
[2] = Toxicity in tadpole assessed as lethality at 5 ppm measured after 96 hrs; assay type: organism-based; conditions: anura, in vivo
[3] = Toxicity in tadpole assessed as lethality at 10 ppm measured after 72 hrs; assay type: organism-based; conditions: anura, in vivo
[4] = Toxicity in tadpole assessed as lethality at 10 ppm measured after 12 hrs; assay type: organism-based; conditions: anura, in vivo
[5] = Toxicity in tadpole assessed as lethality at 5 ppm measured after 12 hrs; assay type: organism-based; conditions: anura, in vivo
[6] = Toxicity in tadpole assessed as lethality at 10 ppm measured after 96 hrs; assay type: organism-based; conditions: anura, in vivo
[7] = Toxicity in tadpole assessed as lethality at 0.3125 ppm measured after 48 hrs; assay type: organism-based; conditions: anura, in vivo
[8] = Toxicity in tadpole assessed as lethality at 0.3125 ppm measured after 24 hrs; assay type: organism-based; conditions: anura, in vivo
[9] = Toxicity in tadpole assessed as lethality at 0.625 ppm measured after 120 hrs; assay type: organism-based; conditions: anura, in vivo
[10] = Toxicity in tadpole assessed as lethality at 0.3125 ppm measured after 96 hrs; assay type: organism-based; conditions: anura, in vivo
[11] = Toxicity in tadpole assessed as lethality at 2.5 ppm measured after 48 hrs; assay type: organism-based; conditions: anura, in vivo
[12] = Toxicity in tadpole assessed as lethality at 1.25 ppm measured after 24 hrs; assay type: organism-based; conditions: anura, in vivo
[13] = Toxicity in tadpole assessed as lethality at 2.5 ppm measured after 96 hrs; assay type: organism-based; conditions: anura, in vivo
[14] = Toxicity in tadpole assessed as lethality at 1.25 ppm measured after 120 hrs; assay type: organism-based; conditions: anura, in vivo
[15] = Toxicity in tadpole assessed as lethality at 0.625 ppm measured after 24 hrs; assay type: organism-based; conditions: anura, in vivo
[16] = Toxicity in tadpole assessed as lethality at 2.5 ppm measured after 12 hrs; assay type: organism-based; conditions: anura, in vivo
[17] = Toxicity in tadpole assessed as lethality at 10 ppm measured after 24 hrs; assay type: organism-based; conditions: anura, in vivo
[18] = Toxicity in tadpole assessed as lethality at 0.625 ppm measured after 96 hrs; assay type: organism-based; conditions: anura, in vivo
[19] = Toxicity in tadpole assessed as lethality at 10 ppm measured after 48 hrs; assay type: organism-based; conditions: anura, in vivo
[20] = Toxicity in tadpole assessed as lethality at 1.25 ppm measured after 96 hrs; assay type: organism-based; conditions: anura, in vivo
[21] = Toxicity in tadpole assessed as lethality at 2.5 ppm measured after 24 hrs; assay type: organism-based; conditions: anura, in vivo
[22] = Toxicity in tadpole assessed as lethality at 1.25 ppm measured after 72 hrs; assay type: organism-based; conditions: anura, in vivo
[23] = Toxicity in tadpole assessed as lethality at 0.3125 ppm measured after 12 hrs; assay type: organism-based; conditions: anura, in vivo
[24] = Toxicity in tadpole assessed as lethality at 5 ppm measured after 24 hrs; assay type: organism-based; conditions: anura, in vivo
[25] = Toxicity in tadpole assessed as lethality at 2.5 ppm measured after 120 hrs; assay type: organism-based; conditions: anura, in vivo
[26] = Toxicity in tadpole assessed as lethality at 5 ppm measured after 120 hrs; assay type: organism-based; conditions: anura, in vivo
[27] = Toxicity in tadpole assessed as lethality at 1.25 ppm measured after 48 hrs; assay type: organism-based; conditions: anura, in vivo
[28] = Toxicity in tadpole assessed as lethality at 5 ppm measured after 72 hrs; assay type: organism-based; conditions: anura, in vivo
[29] = Toxicity in tadpole assessed as lethality at 10 ppm measured after 120 hrs; assay type: organism-based; conditions: anura, in vivo
[30] = Toxicity in tadpole assessed as lethality at 0.625 ppm measured after 48 hrs; assay type: organism-based; conditions: anura, in vivo
[31] = Toxicity in tadpole assessed as lethality at 0.625 ppm measured after 72 hrs; assay type: organism-based; conditions: anura, in vivo
[32] = Toxicity in tadpole assessed as lethality at 2.5 ppm measured after 72 hrs; assay type: organism-based; conditions: anura, in vivo
[33] = Toxicity in tadpole assessed as lethality at 0.3125 ppm measured after 72 hrs; assay type: organism-based; conditions: anura, in vivo
[34] = Toxicity in tadpole assessed as lethality at 1.25 ppm measured after 12 hrs; assay type: organism-based; conditions: anura, in vivo
[35] = Toxicity in tadpole assessed as lethality at 0.3125 ppm measured after 120 hrs; assay type: organism-based; conditions: anura, in vivo
[36] = Toxicity in tadpole assessed as lethality at 0.625 ppm measured after 12 hrs; assay type: organism-based; conditions: anura, in vivo

Cc1ccc(-n2cnc3c(Cl)cc(Cl)cc3c2=O)cc1
LC90 (Schistosoma japonicum): 1.57 ppm | LC50 (Schistosoma japonicum): 1.19 µg/mL (≈ 3.9 µM) | LC90 (Oncomelania hupensis): 6.21 ppm | LC50 (Oncomelania hupensis): 4.71 µg/mL (≈ 15.4 µM)

Cc1ccc(-n2cnc3ccc(Cl)cc3c2=O)c(C)c1
LC90 (Schistosoma japonicum): 1.45 ppm | LC50 (Schistosoma japonicum): 1.1 µg/mL (≈ 3.86 µM) | LC90 (Oncomelania hupensis): 5.75 ppm | LC50 (Oncomelania hupensis): 4.36 µg/mL (≈ 15.3 µM)

O=c1c2cc(Cl)cc(Cl)c2ncn1-c1ccccc1
LC90 (Schistosoma japonicum): 2.19 ppm | LC50 (Schistosoma japonicum): 1.66 µg/mL (≈ 5.7 µM) | LC90 (Oncomelania hupensis): 8.71 ppm | LC50 (Oncomelania hupensis): 6.61 µg/mL (≈ 22.7 µM)

COc1ccc(-n2cnc3c(Cl)cc(Cl)cc3c2=O)cc1
LC90 (Schistosoma japonicum): 3.31 ppm | LC50 (Schistosoma japonicum): 2.51 µg/mL (≈ 7.82 µM) | LC90 (Oncomelania hupensis): 13.18 ppm | LC50 (Oncomelania hupensis): 10 µg/mL (≈ 31.1 µM)

Cc1ccc(-n2cnc3ccc([N+](=O)[O-])cc3c2=O)cc1
LC90 (Schistosoma japonicum): 1.91 ppm | LC50 (Schistosoma japonicum): 1.45 µg/mL (≈ 5.16 µM) | LC90 (Oncomelania hupensis): 7.58 ppm | LC50 (Oncomelania hupensis): 5.75 µg/mL (≈ 20.4 µM)

CCCn1cnc2ccc(Cl)cc2c1=O
LC90 (Schistosoma japonicum): >50 ppm | LC50 (Schistosoma japonicum): > 50 µg/mL | LC90 (Oncomelania hupensis): >100 ppm | LC50 (Oncomelania hupensis): > 100 µg/mL

COc1cc(-n2cnc3ccc([N+](=O)[O-])cc3c2=O)cc(OC)c1OC
LC90 (Schistosoma japonicum): 1.66 ppm | LC50 (Schistosoma japonicum): 1.26 µg/mL (≈ 3.53 µM) | LC90 (Oncomelania hupensis): 6.61 ppm | LC50 (Oncomelania hupensis): 5.01 µg/mL (≈ 14 µM)

Cc1ccc(-n2cnc3c(Cl)cc(Cl)cc3c2=O)c(C)c1
LC90 (Schistosoma japonicum): 1.78 ppm | LC50 (Schistosoma japonicum): 1.35 µg/mL (≈ 4.23 µM) | LC90 (Oncomelania hupensis): 7.08 ppm | LC50 (Oncomelania hupensis): 5.37 µg/mL (≈ 16.8 µM)

O=c1c2cc([N+](=O)[O-])ccc2ncn1-c1ccccc1
LC90 (Schistosoma japonicum): 2.34 ppm | LC50 (Schistosoma japonicum): 1.78 µg/mL (≈ 6.66 µM) | LC90 (Oncomelania hupensis): 9.33 ppm | LC50 (Oncomelania hupensis): 7.07 µg/mL (≈ 26.5 µM)

CN(C)c1ccc(-n2cnc3c(Cl)cc(Cl)cc3c2=O)cc1
LC90 (Schistosoma japonicum): 2.04 ppm | LC50 (Schistosoma japonicum): 1.55 µg/mL (≈ 4.64 µM) | LC90 (Oncomelania hupensis): 8.13 ppm | LC50 (Oncomelania hupensis): 6.17 µg/mL (≈ 18.5 µM)

COc1ccc(-n2cnc3c(Cl)cc(Cl)cc3c2=O)c(OC)c1
LC90 (Schistosoma japonicum): 2.15 ppm | LC50 (Schistosoma japonicum): 1.64 µg/mL (≈ 4.67 µM) | LC90 (Oncomelania hupensis): 8.62 ppm | LC50 (Oncomelania hupensis): 6.55 µg/mL (≈ 18.7 µM)

Cc1ccc(-n2cnc3ccc(Cl)cc3c2=O)cc1
LC90 (Schistosoma japonicum): 1.35 ppm | LC50 (Schistosoma japonicum): 1.02 µg/mL (≈ 3.77 µM) | LC90 (Oncomelania hupensis): 5.37 ppm | LC50 (Oncomelania hupensis): 4.07 µg/mL (≈ 15 µM)

COc1cc(-n2cnc3ccc(Cl)cc3c2=O)cc(OC)c1OC
mortality at 48 h, 5 ppm [1]: 0% | mortality at 96 h, 5 ppm [2]: 10% | mortality at 72 h, 10 ppm [3]: 10% | mortality at 12 h, 10 ppm [4]: 0% | mortality at 12 h, 5 ppm [5]: 0% | mortality at 96 h, 10 ppm [6]: 20% | LC90 (Schistosoma japonicum): 0.89 ppm | LC50 (Schistosoma japonicum): 0.68 µg/mL (≈ 1.96 µM) | mortality at 48 h, 0.3125 ppm [7]: 0% | mortality at 24 h, 0.3125 ppm [8]: 0% | mortality at 120 h, 0.625 ppm [9]: 0% | mortality at 96 h, 0.3125 ppm [10]: 0% | mortality at 48 h, 2.5 ppm [11]: 0% | mortality at 24 h, 1.25 ppm [12]: 0% | mortality at 96 h, 2.5 ppm [13]: 0% | mortality at 120 h, 1.25 ppm [14]: 0% | mortality at 24 h, 0.625 ppm [15]: 0% | mortality at 12 h, 2.5 ppm [16]: 0% | LC90 (Oncomelania hupensis): 3.55 ppm | LC50 (Oncomelania hupensis): 2.69 µg/mL (≈ 7.76 µM) | mortality at 24 h, 10 ppm [17]: 0% | mortality at 96 h, 0.625 ppm [18]: 0% | mortality at 48 h, 10 ppm [19]: 10% | mortality at 96 h, 1.25 ppm [20]: 0% | mortality at 24 h, 2.5 ppm [21]: 0% | mortality at 72 h, 1.25 ppm [22]: 0% | mortality at 12 h, 0.3125 ppm [23]: 0% | mortality at 24 h, 5 ppm [24]: 0% | mortality at 120 h, 2.5 ppm [25]: 0% | mortality at 120 h, 5 ppm [26]: 10% | mortality at 48 h, 1.25 ppm [27]: 0% | mortality at 72 h, 5 ppm [28]: 0% | mortality at 120 h, 10 ppm [29]: 20% | mortality at 48 h, 0.625 ppm [30]: 0% | mortality at 72 h, 0.625 ppm [31]: 0% | mortality at 72 h, 2.5 ppm [32]: 0% | mortality at 72 h, 0.3125 ppm [33]: 0% | mortality at 12 h, 1.25 ppm [34]: 0% | mortality at 120 h, 0.3125 ppm [35]: 0% | mortality at 12 h, 0.625 ppm [36]: 0%

COc1cc(-n2cnc3c(Cl)cc(Cl)cc3c2=O)cc(OC)c1OC
LC90 (Schistosoma japonicum): 3.28 ppm | LC50 (Schistosoma japonicum): 2.49 µg/mL (≈ 6.53 µM) | LC90 (Oncomelania hupensis): 12.95 ppm | LC50 (Oncomelania hupensis): 9.95 µg/mL (≈ 26.1 µM)

COc1ccc(-n2cnc3ccc(Cl)cc3c2=O)c(OC)c1
LC90 (Schistosoma japonicum): 1.19 ppm | LC50 (Schistosoma japonicum): 0.91 µg/mL (≈ 2.87 µM) | LC90 (Oncomelania hupensis): 4.97 ppm | LC50 (Oncomelania hupensis): 3.78 µg/mL (≈ 11.9 µM)

COc1cc([N+](=O)[O-])ccc1-n1cnc2c(Cl)cc(Cl)cc2c1=O
LC90 (Schistosoma japonicum): 1.72 ppm | LC50 (Schistosoma japonicum): 1.31 µg/mL (≈ 3.58 µM) | LC90 (Oncomelania hupensis): 7.03 ppm | LC50 (Oncomelania hupensis): 5.34 µg/mL (≈ 14.6 µM)

NCCO.O=C(Nc1ccc([N+](=O)[O-])cc1Cl)c1cc(Cl)ccc1O
LC90 (Schistosoma japonicum): <0.1 ppm | LC50 (Schistosoma japonicum): < 0.1 µg/mL | LC90 (Oncomelania hupensis): <1 ppm | LC50 (Oncomelania hupensis): < 1 µg/mL

O=c1c2cc(Cl)cc(Cl)c2ncn1-c1ccc([N+](=O)[O-])cc1
LC90 (Schistosoma japonicum): 1.52 ppm | LC50 (Schistosoma japonicum): 1.15 µg/mL (≈ 3.42 µM) | LC90 (Oncomelania hupensis): 6.11 ppm | LC50 (Oncomelania hupensis): 4.65 µg/mL (≈ 13.8 µM)

COc1ccc(-n2cnc3ccc(Cl)cc3c2=O)cc1
LC90 (Schistosoma japonicum): 1.23 ppm | LC50 (Schistosoma japonicum): 0.95 µg/mL (≈ 3.31 µM) | LC90 (Oncomelania hupensis): 5.01 ppm | LC50 (Oncomelania hupensis): 3.8 µg/mL (≈ 13.3 µM)

O=c1c2cc(Cl)ccc2ncn1-c1ccccc1
LC90 (Schistosoma japonicum): 1.55 ppm | LC50 (Schistosoma japonicum): 1.17 µg/mL (≈ 4.56 µM) | LC90 (Oncomelania hupensis): 6.16 ppm | LC50 (Oncomelania hupensis): 4.68 µg/mL (≈ 18.2 µM)

O=c1c2cc(Cl)ccc2ncn1C1CCCCC1
LC90 (Schistosoma japonicum): >50 ppm | LC50 (Schistosoma japonicum): > 50 µg/mL | LC90 (Oncomelania hupensis): >100 ppm | LC50 (Oncomelania hupensis): > 100 µg/mL
